Measured values from ChEMBL document CHEMBL3046292, “The effects of luteolin on phenoloxidase and the growth of Spodoptera exigua (Hubner) larvae (Lepidoptera: Noctuidae)” (J Pestic Sci, 2010).
Values after ≈ are worked out from the molar mass of the structure shown. Active and inactive are the calls of the source. The rule behind the calls is not given here.

Tests used:
[1] = target: T1, Phenol oxidase (Plutella xylostella) (UniProt B5U2Z5); test: Inhibition of Spodoptera exigua larvae phenoloxidase assessed as remaining activity at 0.45 mmol/l
T1 sequence (whole entry): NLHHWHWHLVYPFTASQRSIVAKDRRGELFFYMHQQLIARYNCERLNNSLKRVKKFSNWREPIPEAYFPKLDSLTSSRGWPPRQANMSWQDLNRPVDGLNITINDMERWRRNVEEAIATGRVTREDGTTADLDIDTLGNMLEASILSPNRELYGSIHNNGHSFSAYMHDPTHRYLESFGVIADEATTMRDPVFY

Spodoptera exigua [2] = test: Insecticidal activity against third-instar Spodoptera exigua larvae assessed as mortality at 8 g/l measured after 11 days; assay type: functional; conditions: 264 h
Spodoptera exigua [3] = test: Insecticidal activity against third-instar Spodoptera exigua larvae assessed as mortality treated after 5 days; assay type: functional; conditions: 120 h
Spodoptera exigua [4] = test: Insecticidal activity against third-instar Spodoptera exigua larvae assessed as mortality at 16 g/l measured after 5 days; assay type: functional; conditions: 120 h
Spodoptera exigua [5] = test: Insecticidal activity against third-instar Spodoptera exigua larvae assessed as pupation at 0.2 g/l (reference value: 96.67 +/- 1.40%); assay type: functional
Spodoptera exigua [6] = test: Insecticidal activity against third-instar Spodoptera exigua larvae assessed as inhibition of body weight increase at 8 g/l measured from 24 hr to 48 hr; assay type: functional
Spodoptera exigua [7] = test: Insecticidal activity against third-instar Spodoptera exigua larvae assessed as per pupa weight at 1.6 g/l by pupa weight inhibition assay (reference value: 0.1054 +/- 0.01 g/pupae); assay type: functional
Spodoptera exigua [8] = test: Insecticidal activity against third-instar Spodoptera exigua larvae assessed as mortality at 8 g/l measured after 9 days; assay type: functional; conditions: 216 h
Spodoptera exigua [9] = test: Insecticidal activity against third-instar Spodoptera exigua larvae assessed as inhibition of body weight increase at 4 g/l measured from 24 hr to 48 hr; assay type: functional
Spodoptera exigua [10] = test: Insecticidal activity against third-instar Spodoptera exigua larvae assessed as pupation at 0.1 g/l (reference value: 96.67 +/- 1.40%); assay type: functional
Spodoptera exigua [11] = test: Insecticidal activity against third-instar Spodoptera exigua larvae assessed as mortality at 4 g/l measured after 9 days; assay type: functional; conditions: 216 h
Spodoptera exigua [12] = test: Insecticidal activity against third-instar Spodoptera exigua larvae assessed as mortality at 8 g/l measured after 5 days; assay type: functional; conditions: 120 h
Spodoptera exigua [13] = test: Insecticidal activity against third-instar Spodoptera exigua larvae assessed as mortality at 2 g/l measured after 5 days; assay type: functional; conditions: 120 h
Spodoptera exigua [14] = test: Insecticidal activity against third-instar Spodoptera exigua larvae assessed as per pupa weight at 0.4 g/l by pupa weight inhibition assay (reference value: 0.1054 +/- 0.01 g/pupae); assay type: functional
Spodoptera exigua [15] = test: Insecticidal activity against third-instar Spodoptera exigua larvae assessed as mortality at 16 g/l measured after 7 days; assay type: functional; conditions: 168 h
Spodoptera exigua [16] = test: Insecticidal activity against third-instar Spodoptera exigua larvae assessed as per pupa weight at 0.8 g/l by pupa weight inhibition assay (reference value: 0.1054 +/- 0.01 g/pupae); assay type: functional
Spodoptera exigua [17] = test: Insecticidal activity against third-instar Spodoptera exigua larvae assessed as inhibition of body weight increase at 1 g/l measured from 24 hr to 48 hr; assay type: functional
Spodoptera exigua [18] = test: Insecticidal activity against third-instar Spodoptera exigua larvae assessed as eclosion at 0.1 g/l (reference value: 96.67 +/- 1.40%); assay type: functional
Spodoptera exigua [19] = test: Insecticidal activity against third-instar Spodoptera exigua larvae assessed as mortality at 4 g/l measured after 11 days; assay type: functional; conditions: 264 h
Spodoptera exigua [20] = test: Insecticidal activity against third-instar Spodoptera exigua larvae assessed as mortality at 16 g/l measured after 11 days; assay type: functional; conditions: 264 h
Spodoptera exigua [21] = test: Insecticidal activity against third-instar Spodoptera exigua larvae assessed as mortality at 4 g/l measured after 7 days; assay type: functional; conditions: 168 h
Spodoptera exigua [22] = test: Insecticidal activity against third-instar Spodoptera exigua larvae assessed as inhibition of body weight increase at 2 g/l measured from 24 hr to 48 hr; assay type: functional
Spodoptera exigua [23] = test: Insecticidal activity against third-instar Spodoptera exigua larvae assessed as mortality at 8 g/l measured after 3 days; assay type: functional; conditions: 72 h
[24] = target: T1, Phenol oxidase (Plutella xylostella); test: In vivo inhibition of Spodoptera exigua larvae phenoloxidase
Spodoptera exigua [25] = test: Insecticidal activity against third-instar Spodoptera exigua larvae assessed as mortality treated after 11 days; assay type: functional; conditions: 264 h
Spodoptera exigua [26] = test: Insecticidal activity against third-instar Spodoptera exigua larvae assessed as mortality at 2 g/l measured after 3 days; assay type: functional; conditions: 72 h
[27] = target: T1, Phenol oxidase (Plutella xylostella); test: Inhibition of Spodoptera exigua larvae phenoloxidase assessed as remaining activity at 0.15 mmol/l
Spodoptera exigua [28] = test: Insecticidal activity against third-instar Spodoptera exigua larvae assessed as mortality at 8 g/l measured after 7 days; assay type: functional; conditions: 168 h
Spodoptera exigua [29] = test: Insecticidal activity against third-instar Spodoptera exigua larvae assessed as eclosion at 0.2 g/l (reference value: 96.67 +/- 1.40%); assay type: functional
Spodoptera exigua [30] = test: Insecticidal activity against third-instar Spodoptera exigua larvae assessed as mortality at 2 g/l measured after 11 days; assay type: functional; conditions: 264 h
Spodoptera exigua [31] = test: Insecticidal activity against third-instar Spodoptera exigua larvae assessed as eclosion at 0.4 g/l (reference value: 96.67 +/- 1.40%); assay type: functional
Spodoptera exigua [32] = test: Insecticidal activity against third-instar Spodoptera exigua larvae assessed as per pupa weight at 0.1 g/l by pupa weight inhibition assay (reference value: 0.1054 +/- 0.01 g/pupae); assay type: functional
Spodoptera exigua [33] = test: Insecticidal activity against third-instar Spodoptera exigua larvae assessed as per pupa weight at 0.2 g/l by pupa weight inhibition assay (reference value: 0.1054 +/- 0.01 g/pupae); assay type: functional
Spodoptera exigua [34] = test: Insecticidal activity against third-instar Spodoptera exigua larvae assessed as pupation at 0.4 g/l (reference value: 96.67 +/- 1.40%); assay type: functional
Spodoptera exigua [35] = test: Insecticidal activity against third-instar Spodoptera exigua larvae assessed as eclosion at 0.8 g/l (reference value: 96.67 +/- 1.40%); assay type: functional
Spodoptera exigua [36] = test: Insecticidal activity against third-instar Spodoptera exigua larvae assessed as mortality treated after 9 days; assay type: functional; conditions: 216 h
Spodoptera exigua [37] = test: Insecticidal activity against third-instar Spodoptera exigua larvae assessed as mortality at 16 g/l measured after 3 days; assay type: functional; conditions: 72 h
Spodoptera exigua [38] = test: Insecticidal activity against third-instar Spodoptera exigua larvae assessed as pupation at 1.6 g/l (reference value: 96.67 +/- 1.40%); assay type: functional
Spodoptera exigua [39] = test: Insecticidal activity against third-instar Spodoptera exigua larvae assessed as pupation at 0.8 g/l (reference value: 96.67 +/- 1.40%); assay type: functional
Spodoptera exigua [40] = test: Insecticidal activity against third-instar Spodoptera exigua larvae assessed as mortality at 2 g/l measured after 9 days; assay type: functional; conditions: 216 h
Spodoptera exigua [41] = test: Insecticidal activity against third-instar Spodoptera exigua larvae assessed as mortality at 4 g/l measured after 5 days; assay type: functional; conditions: 120 h
Spodoptera exigua [42] = test: Insecticidal activity against third-instar Spodoptera exigua larvae assessed as mortality treated after 7 days; assay type: functional; conditions: 168 h
Spodoptera exigua [43] = test: Insecticidal activity against third-instar Spodoptera exigua larvae assessed as mortality at 16 g/l measured after 9 days; assay type: functional; conditions: 216 h
Spodoptera exigua [44] = test: Insecticidal activity against third-instar Spodoptera exigua larvae assessed as mortality at 2 g/l measured after 7 days; assay type: functional; conditions: 168 h
Spodoptera exigua [45] = test: Insecticidal activity against third-instar Spodoptera exigua larvae assessed as inhibition of body weight increase at 16 g/l measured from 24 hr to 48 hr; assay type: functional
Spodoptera exigua [46] = test: Insecticidal activity against third-instar Spodoptera exigua larvae assessed as eclosion at 1.6 g/l (reference value: 96.67 +/- 1.40%); assay type: functional
Spodoptera exigua [47] = test: Insecticidal activity against third-instar Spodoptera exigua larvae assessed as mortality at 4 g/l measured after 3 days; assay type: functional; conditions: 72 h

SMILES: O=c1cc(-c2ccc(O)c(O)c2)oc2cc(O)cc(O)c12 [LUTEOLIN]
- Activity [1]: 45.3%
- mortality at 8000 µg/mL (Spodoptera exigua [2]): 77.7%
- LC50 (Spodoptera exigua [3]): 8970 µg/mL (≈ 31.3 mM)
- mortality at 16000 µg/mL (Spodoptera exigua [4]): 60.6%
- Activity (Spodoptera exigua [5]): 90%
- inhibition at 8000 µg/mL (Spodoptera exigua [6]): 56.8%
- Activity (Spodoptera exigua [7]): 0.0647 g
- mortality at 8000 µg/mL (Spodoptera exigua [8]): 72.9%
- inhibition at 4000 µg/mL (Spodoptera exigua [9]): 49.6%
- Activity (Spodoptera exigua [10]): 96.67%
- mortality at 4000 µg/mL (Spodoptera exigua [11]): 57.4%
- mortality at 8000 µg/mL (Spodoptera exigua [12]): 47.3%
- mortality at 2000 µg/mL (Spodoptera exigua [13]): 15.8%
- Activity (Spodoptera exigua [14]): 0.0798 g
- mortality at 16000 µg/mL (Spodoptera exigua [15]): 74.5%
- Activity (Spodoptera exigua [16]): 0.0743 g
- inhibition at 1000 µg/mL (Spodoptera exigua [17]): 38%
- Activity (Spodoptera exigua [18]): 86.67%
- mortality at 4000 µg/mL (Spodoptera exigua [19]): 61%
- mortality at 16000 µg/mL (Spodoptera exigua [20]): 90.5%
- mortality at 4000 µg/mL (Spodoptera exigua [21]): 48.5%
- inhibition at 2000 µg/mL (Spodoptera exigua [22]): 42.7%
- mortality at 8000 µg/mL (Spodoptera exigua [23]): 29.8%
- inhibition [24]: Active
- LC50 (Spodoptera exigua [25]): 2530 µg/mL (≈ 8.84 mM)
- mortality at 2000 µg/mL (Spodoptera exigua [26]): 10.1%
- Activity [27]: 67.2%
- mortality at 8000 µg/mL (Spodoptera exigua [28]): 57.7%
- Activity (Spodoptera exigua [29]): 83.33%
- mortality at 2000 µg/mL (Spodoptera exigua [30]): 42.6%
- Activity (Spodoptera exigua [31]): 66.67%
- Activity (Spodoptera exigua [32]): 0.0905 g
- Activity (Spodoptera exigua [33]): 0.0898 g
- Activity (Spodoptera exigua [34]): 70%
- Activity (Spodoptera exigua [35]): 43.33%
- LC50 (Spodoptera exigua [36]): 3540 µg/mL (≈ 12.4 mM)
- mortality at 16000 µg/mL (Spodoptera exigua [37]): 33.2%
- Activity (Spodoptera exigua [38]): 36.67%
- Activity (Spodoptera exigua [39]): 53.33%
- mortality at 2000 µg/mL (Spodoptera exigua [40]): 33.8%
- mortality at 4000 µg/mL (Spodoptera exigua [41]): 38%
- LC50 (Spodoptera exigua [42]): 5560 µg/mL (≈ 19.4 mM)
- mortality at 16000 µg/mL (Spodoptera exigua [43]): 84.1%
- mortality at 2000 µg/mL (Spodoptera exigua [44]): 26.3%
- inhibition at 16000 µg/mL (Spodoptera exigua [45]): 66.8%
- Activity (Spodoptera exigua [46]): 36.67%
- mortality at 4000 µg/mL (Spodoptera exigua [47]): 23.5%
